Test results: ChEMBL document CHEMBL4382269, “Discovery of Potent, Efficient, and Selective Inhibitors of Phosphoinositide 3-Kinase δ through a Deconstruction and Regrowth Approach” (J Med Chem, 2018)
≈ marks a conversion by molar mass, not a printed value.

Experiments:
[1] = species: Homo sapiens; assay: Selectivity ratio of IC50 for LRRK2 (unknown origin) to IC50 for PI3Kdelta (unknown origin)
[2] = target: Phosphatidylinositol 4,5-bisphosphate 3-kinase catalytic subunit gamma isoform (Homo sapiens, UniProt P48736); assay: Inhibition of PI3Kgamma (unknown origin) using PIP2 as substrate preincubated for 15 mins followed by substrate addition measured after 60 mins by HTRF method
[3] = species: Homo sapiens; assay: Selectivity ratio of IC50 for PIK3C2B (unknown origin) to IC50 for PI3Kdelta (unknown origin)
[4] = tested on: PBMC; assay: Inhibition of cytostim stimulated IFNgamma production in human PBMC […] by electrochemiluminescence assay; type: functional, cell-based
[5] = species: Homo sapiens; assay: Selectivity ratio of IC50 for PI4KA (unknown origin) to IC50 for PI3Kdelta (unknown origin)
[6] = species: Homo sapiens; assay: Selectivity ratio of IC50 for JNK1 (unknown origin) to IC50 for PI3Kdelta (unknown origin)
[7] = target: serum albumin (Homo sapiens, UniProt P02768); assay: Binding affinity to human serum albumin by HPLC analysis; type: ADME; settings: read-out: PB (converted)
[8] = species: Homo sapiens; assay: Selectivity ratio of IC50 for PI3Kbeta (unknown origin) to IC50 for PI3Kdelta (unknown origin)
[9] = species: Homo sapiens; assay: Selectivity ratio of IC50 for DAG beta (unknown origin) to IC50 for PI3Kdelta (unknown origin)
[10] = target: Phosphatidylinositol 4,5-bisphosphate 3-kinase catalytic subunit alpha isoform (Homo sapiens, UniProt P42336); assay: Inhibition of PI3Kalpha (unknown origin) using PIP2 as substrate preincubated for 15 mins followed by substrate addition measured after 60 mins by HTRF method
[11] = species: Homo sapiens; assay: Selectivity ratio of IC50 for SPHK1 (unknown origin) to IC50 for PI3Kdelta (unknown origin)
[12] = species: Homo sapiens; assay: Selectivity ratio of IC50 for LCK (unknown origin) to IC50 for PI3Kdelta (unknown origin)
[13] = species: Homo sapiens; assay: Selectivity ratio of IC50 for PIP4K2A (unknown origin) to IC50 for PI3Kdelta (unknown origin)
[14] = species: Homo sapiens; assay: Selectivity ratio of IC50 for DAG zeta (unknown origin) to IC50 for PI3Kdelta (unknown origin)
[15] = species: Homo sapiens; assay: Selectivity ratio of IC50 for PI4KB (unknown origin) to IC50 for PI3Kdelta (unknown origin)
[16] = species: Homo sapiens; assay: Selectivity ratio of IC50 for PI3Kalpha (unknown origin) to IC50 for PI3Kdelta (unknown origin)
[17] = species: Homo sapiens; assay: Selectivity ratio of IC50 for DNA-PK (unknown origin) to IC50 for PI3Kdelta (unknown origin)
[18] = target: T1, Phosphatidylinositol 4,5-bisphosphate 3-kinase catalytic subunit delta isoform (Homo sapiens, UniProt O00329); assay: Inhibition of PI3Kdelta (unknown origin) using PIP2 as substrate preincubated for 15 mins followed by substrate addition measured after 60 mins by HTRF method
T1 sequence (O00329 whole entry): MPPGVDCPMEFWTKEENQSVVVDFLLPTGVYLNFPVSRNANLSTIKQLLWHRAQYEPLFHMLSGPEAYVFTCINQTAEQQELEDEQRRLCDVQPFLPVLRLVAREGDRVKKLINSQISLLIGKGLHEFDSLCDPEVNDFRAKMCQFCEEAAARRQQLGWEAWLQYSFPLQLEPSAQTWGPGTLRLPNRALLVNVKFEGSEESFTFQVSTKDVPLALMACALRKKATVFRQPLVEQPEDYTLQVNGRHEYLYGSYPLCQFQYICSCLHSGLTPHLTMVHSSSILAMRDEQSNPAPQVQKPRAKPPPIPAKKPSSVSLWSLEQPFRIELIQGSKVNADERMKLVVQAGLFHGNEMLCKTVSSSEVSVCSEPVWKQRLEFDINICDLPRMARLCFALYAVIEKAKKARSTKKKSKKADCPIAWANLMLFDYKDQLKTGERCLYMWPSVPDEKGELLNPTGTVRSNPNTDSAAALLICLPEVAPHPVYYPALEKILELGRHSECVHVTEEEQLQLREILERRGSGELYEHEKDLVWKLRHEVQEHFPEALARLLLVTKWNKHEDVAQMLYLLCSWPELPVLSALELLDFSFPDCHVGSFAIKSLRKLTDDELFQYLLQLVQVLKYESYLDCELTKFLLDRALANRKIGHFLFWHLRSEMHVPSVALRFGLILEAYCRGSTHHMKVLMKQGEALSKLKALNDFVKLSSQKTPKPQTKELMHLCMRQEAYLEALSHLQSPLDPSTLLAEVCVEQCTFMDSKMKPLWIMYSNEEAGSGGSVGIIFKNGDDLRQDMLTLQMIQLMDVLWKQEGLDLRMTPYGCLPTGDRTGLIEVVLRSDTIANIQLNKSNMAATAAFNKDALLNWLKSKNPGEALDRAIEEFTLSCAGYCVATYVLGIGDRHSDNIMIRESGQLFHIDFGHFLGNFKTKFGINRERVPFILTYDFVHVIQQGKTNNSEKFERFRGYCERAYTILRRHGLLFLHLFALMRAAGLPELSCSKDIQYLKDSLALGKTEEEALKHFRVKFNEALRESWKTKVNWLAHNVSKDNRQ

[19] = species: Homo sapiens; assay: Selectivity ratio of IC50 for SPHK2 (unknown origin) to IC50 for PI3Kdelta (unknown origin)
[20] = species: Homo sapiens; assay: Selectivity ratio of IC50 for CHKB (unknown origin) to IC50 for PI3Kdelta (unknown origin)
[21] = species: Homo sapiens; assay: Selectivity ratio of IC50 for mTOR (unknown origin) to IC50 for PI3Kdelta (unknown origin)
[22] = target: Phosphatidylinositol 4,5-bisphosphate 3-kinase catalytic subunit beta isoform (Homo sapiens, UniProt P42338); assay: Inhibition of PI3Kbeta (unknown origin) using PIP2 as substrate preincubated for 15 mins followed by substrate addition measured after 60 mins by HTRF method
[23] = Clearance in human microsomes at 0.5 uM in presence of NADPH measured up to 30 mins by LC-MS/MS analysis; type: ADME, Microsome; settings: 0.5 h
[24] = species: Homo sapiens; assay: Selectivity ratio of IC50 for SYK (unknown origin) to IC50 for PI3Kdelta (unknown origin)
[25] = species: Homo sapiens; assay: Selectivity ratio of IC50 for p38alpha (unknown origin) to IC50 for PI3Kdelta (unknown origin)
[26] = species: Homo sapiens; assay: Selectivity ratio of IC50 for JAK3 (unknown origin) to IC50 for PI3Kdelta (unknown origin)
[27] = species: Homo sapiens; assay: Selectivity ratio of IC50 for IKK2 (unknown origin) to IC50 for PI3Kdelta (unknown origin)
[28] = species: Homo sapiens; assay: Selectivity ratio of IC50 for Aurora B (unknown origin) to IC50 for PI3Kdelta (unknown origin)
[29] = species: Homo sapiens; assay: Selectivity ratio of IC50 for ROCK (unknown origin) to IC50 for PI3Kdelta (unknown origin)
[30] = species: Homo sapiens; assay: Selectivity ratio of IC50 for BTK (unknown origin) to IC50 for PI3Kdelta (unknown origin)
[31] = species: Homo sapiens; assay: Selectivity ratio of IC50 for ITK (unknown origin) to IC50 for PI3Kdelta (unknown origin)
[32] = species: Homo sapiens; assay: Selectivity ratio of IC50 for EGFR (unknown origin) to IC50 for PI3Kdelta (unknown origin)
[33] = Clearance in rat microsomes at 0.5 uM in presence of NADPH measured up to 30 mins by LC-MS/MS analysis; type: ADME, Microsome; settings: 0.5 h
[34] = species: Homo sapiens; assay: Selectivity ratio of IC50 for JAK2 (unknown origin) to IC50 for PI3Kdelta (unknown origin)
[35] = species: Homo sapiens; assay: Selectivity ratio of IC50 for ASK1 (unknown origin) to IC50 for PI3Kdelta (unknown origin)
[36] = target: Voltage-gated inwardly rectifying potassium channel KCNH2 (Homo sapiens, UniProt Q12809); assay: Inhibition of human ERG expressed in CHO cells after 75 mins by fluorescence polarization assay
[37] = species: Homo sapiens; assay: Selectivity ratio of IC50 for PI3Kgamma (unknown origin) to IC50 for PI3Kdelta (unknown origin)
[38] = species: Homo sapiens; assay: Selectivity ratio of IC50 for IKK1 (unknown origin) to IC50 for PI3Kdelta (unknown origin)
[39] = species: Homo sapiens; assay: Selectivity ratio of IC50 for DAG gamma (unknown origin) to IC50 for PI3Kdelta (unknown origin)
[40] = Kinetic solubility of the compound in phosphate buffer saline at pH 7.4 after 1 hr by CLND method; type: physicochemical; settings: phosphate buffered saline, read-out: Kinetic_solubility
[41] = species: Homo sapiens; assay: Selectivity ratio of IC50 for CHKA (unknown origin) to IC50 for PI3Kdelta (unknown origin)
[42] = species: Homo sapiens; assay: Selectivity ratio of IC50 for PIK3C3/PIK3R4 (unknown origin) to IC50 for PI3Kdelta (unknown origin)

Sequence of serum albumin (P02768 whole entry): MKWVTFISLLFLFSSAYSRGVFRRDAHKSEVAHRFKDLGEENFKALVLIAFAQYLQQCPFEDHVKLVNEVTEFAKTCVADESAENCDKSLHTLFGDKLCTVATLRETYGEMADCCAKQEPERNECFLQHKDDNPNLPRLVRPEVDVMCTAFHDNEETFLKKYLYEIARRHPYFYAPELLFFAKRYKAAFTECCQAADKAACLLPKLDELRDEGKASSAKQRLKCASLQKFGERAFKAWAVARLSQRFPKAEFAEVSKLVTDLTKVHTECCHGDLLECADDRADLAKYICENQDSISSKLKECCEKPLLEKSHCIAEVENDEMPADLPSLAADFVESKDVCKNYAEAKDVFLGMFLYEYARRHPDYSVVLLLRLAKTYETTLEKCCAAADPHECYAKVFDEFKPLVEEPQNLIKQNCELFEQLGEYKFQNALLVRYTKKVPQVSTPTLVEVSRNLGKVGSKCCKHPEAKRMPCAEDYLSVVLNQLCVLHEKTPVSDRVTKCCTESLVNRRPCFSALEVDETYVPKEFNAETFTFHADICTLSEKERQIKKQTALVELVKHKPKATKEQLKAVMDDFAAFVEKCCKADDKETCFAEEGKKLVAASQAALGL
Sequence of Phosphatidylinositol 4,5-bisphosphate 3-kinase catalytic subunit beta isoform (P42338 whole entry, canonical isoform): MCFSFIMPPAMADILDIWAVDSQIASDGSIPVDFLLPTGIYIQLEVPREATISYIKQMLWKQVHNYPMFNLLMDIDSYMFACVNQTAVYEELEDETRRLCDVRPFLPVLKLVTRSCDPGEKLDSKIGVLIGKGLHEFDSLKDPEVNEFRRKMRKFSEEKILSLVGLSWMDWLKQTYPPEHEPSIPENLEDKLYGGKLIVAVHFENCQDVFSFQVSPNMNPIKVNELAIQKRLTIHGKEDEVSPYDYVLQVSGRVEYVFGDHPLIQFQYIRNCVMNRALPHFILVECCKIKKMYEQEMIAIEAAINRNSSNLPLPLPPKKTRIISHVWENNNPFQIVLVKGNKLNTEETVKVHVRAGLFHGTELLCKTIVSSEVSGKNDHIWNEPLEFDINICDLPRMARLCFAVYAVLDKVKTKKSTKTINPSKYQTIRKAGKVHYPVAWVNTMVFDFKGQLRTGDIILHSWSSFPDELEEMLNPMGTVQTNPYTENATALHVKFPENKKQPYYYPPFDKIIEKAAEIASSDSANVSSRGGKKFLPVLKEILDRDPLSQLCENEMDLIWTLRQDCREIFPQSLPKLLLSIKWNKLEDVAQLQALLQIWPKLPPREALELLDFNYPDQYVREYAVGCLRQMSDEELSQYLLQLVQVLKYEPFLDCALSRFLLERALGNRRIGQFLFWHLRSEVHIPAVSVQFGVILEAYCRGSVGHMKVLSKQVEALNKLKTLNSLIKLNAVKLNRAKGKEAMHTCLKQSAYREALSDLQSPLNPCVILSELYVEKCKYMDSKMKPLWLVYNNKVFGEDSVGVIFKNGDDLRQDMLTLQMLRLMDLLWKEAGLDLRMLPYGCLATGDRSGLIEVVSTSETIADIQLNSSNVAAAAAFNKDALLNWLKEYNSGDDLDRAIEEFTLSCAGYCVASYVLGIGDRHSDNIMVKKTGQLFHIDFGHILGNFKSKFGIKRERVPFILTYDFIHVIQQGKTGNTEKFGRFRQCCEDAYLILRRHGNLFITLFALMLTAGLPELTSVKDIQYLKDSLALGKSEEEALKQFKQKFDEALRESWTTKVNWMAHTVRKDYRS
Sequence of Phosphatidylinositol 4,5-bisphosphate 3-kinase catalytic subunit alpha isoform (P42336 whole entry, canonical isoform): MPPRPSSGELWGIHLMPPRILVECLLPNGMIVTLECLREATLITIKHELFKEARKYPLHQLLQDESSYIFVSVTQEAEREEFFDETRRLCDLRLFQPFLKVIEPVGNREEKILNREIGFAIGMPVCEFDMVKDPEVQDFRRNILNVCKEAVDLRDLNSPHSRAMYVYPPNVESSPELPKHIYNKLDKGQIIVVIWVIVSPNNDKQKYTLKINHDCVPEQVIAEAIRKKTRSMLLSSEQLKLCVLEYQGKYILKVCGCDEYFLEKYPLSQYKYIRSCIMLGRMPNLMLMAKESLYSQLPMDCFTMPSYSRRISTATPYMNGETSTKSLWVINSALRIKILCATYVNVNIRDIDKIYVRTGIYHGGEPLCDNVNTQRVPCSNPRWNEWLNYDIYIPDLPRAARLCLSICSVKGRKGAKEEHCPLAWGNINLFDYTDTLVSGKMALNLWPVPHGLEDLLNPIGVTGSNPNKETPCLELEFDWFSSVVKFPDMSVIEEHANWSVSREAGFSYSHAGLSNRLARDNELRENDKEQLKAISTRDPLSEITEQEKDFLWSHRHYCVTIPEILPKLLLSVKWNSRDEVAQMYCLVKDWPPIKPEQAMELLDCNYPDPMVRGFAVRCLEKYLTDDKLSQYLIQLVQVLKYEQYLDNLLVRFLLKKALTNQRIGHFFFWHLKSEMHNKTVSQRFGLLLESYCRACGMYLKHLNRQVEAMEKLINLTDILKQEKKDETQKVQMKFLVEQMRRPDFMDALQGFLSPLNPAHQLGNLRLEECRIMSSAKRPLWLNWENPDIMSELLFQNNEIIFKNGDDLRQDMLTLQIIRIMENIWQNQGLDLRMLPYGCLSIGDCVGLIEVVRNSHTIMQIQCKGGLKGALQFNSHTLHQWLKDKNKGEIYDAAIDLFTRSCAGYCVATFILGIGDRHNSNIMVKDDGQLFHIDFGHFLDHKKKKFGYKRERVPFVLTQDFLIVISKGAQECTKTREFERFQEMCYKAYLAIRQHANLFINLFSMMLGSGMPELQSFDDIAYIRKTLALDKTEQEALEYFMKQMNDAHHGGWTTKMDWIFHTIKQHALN
Sequence of Phosphatidylinositol 4,5-bisphosphate 3-kinase catalytic subunit gamma isoform (P48736 whole entry, canonical isoform): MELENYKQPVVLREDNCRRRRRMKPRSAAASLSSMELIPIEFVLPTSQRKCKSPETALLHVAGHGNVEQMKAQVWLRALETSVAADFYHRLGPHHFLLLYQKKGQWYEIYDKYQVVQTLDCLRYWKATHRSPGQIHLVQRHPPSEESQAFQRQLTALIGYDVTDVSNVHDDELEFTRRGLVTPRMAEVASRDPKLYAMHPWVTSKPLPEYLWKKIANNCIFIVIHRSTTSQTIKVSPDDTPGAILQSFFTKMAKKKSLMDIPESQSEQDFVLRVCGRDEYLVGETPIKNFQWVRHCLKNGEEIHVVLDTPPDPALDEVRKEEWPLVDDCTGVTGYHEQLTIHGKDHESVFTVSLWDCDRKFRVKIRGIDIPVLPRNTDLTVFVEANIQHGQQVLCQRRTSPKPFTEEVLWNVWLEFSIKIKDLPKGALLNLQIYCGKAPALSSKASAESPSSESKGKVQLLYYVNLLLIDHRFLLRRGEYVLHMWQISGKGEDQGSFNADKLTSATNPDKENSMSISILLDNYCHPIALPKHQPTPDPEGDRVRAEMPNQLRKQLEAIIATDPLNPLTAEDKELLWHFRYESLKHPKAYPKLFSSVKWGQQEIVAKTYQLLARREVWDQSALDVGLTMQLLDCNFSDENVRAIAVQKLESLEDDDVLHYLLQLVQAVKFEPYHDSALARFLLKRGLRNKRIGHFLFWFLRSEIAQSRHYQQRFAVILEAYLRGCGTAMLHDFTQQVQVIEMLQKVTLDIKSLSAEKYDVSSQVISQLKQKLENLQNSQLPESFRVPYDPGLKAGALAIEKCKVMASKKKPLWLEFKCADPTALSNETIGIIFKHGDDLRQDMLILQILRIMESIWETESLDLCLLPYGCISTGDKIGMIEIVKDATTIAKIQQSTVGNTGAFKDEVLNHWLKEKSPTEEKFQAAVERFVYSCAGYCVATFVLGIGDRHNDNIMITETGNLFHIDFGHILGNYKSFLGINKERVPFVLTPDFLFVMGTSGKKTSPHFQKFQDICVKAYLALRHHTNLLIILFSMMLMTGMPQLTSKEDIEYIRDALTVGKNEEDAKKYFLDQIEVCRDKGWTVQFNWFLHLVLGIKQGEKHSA
Sequence of Voltage-gated inwardly rectifying potassium channel KCNH2 (Q12809 whole entry): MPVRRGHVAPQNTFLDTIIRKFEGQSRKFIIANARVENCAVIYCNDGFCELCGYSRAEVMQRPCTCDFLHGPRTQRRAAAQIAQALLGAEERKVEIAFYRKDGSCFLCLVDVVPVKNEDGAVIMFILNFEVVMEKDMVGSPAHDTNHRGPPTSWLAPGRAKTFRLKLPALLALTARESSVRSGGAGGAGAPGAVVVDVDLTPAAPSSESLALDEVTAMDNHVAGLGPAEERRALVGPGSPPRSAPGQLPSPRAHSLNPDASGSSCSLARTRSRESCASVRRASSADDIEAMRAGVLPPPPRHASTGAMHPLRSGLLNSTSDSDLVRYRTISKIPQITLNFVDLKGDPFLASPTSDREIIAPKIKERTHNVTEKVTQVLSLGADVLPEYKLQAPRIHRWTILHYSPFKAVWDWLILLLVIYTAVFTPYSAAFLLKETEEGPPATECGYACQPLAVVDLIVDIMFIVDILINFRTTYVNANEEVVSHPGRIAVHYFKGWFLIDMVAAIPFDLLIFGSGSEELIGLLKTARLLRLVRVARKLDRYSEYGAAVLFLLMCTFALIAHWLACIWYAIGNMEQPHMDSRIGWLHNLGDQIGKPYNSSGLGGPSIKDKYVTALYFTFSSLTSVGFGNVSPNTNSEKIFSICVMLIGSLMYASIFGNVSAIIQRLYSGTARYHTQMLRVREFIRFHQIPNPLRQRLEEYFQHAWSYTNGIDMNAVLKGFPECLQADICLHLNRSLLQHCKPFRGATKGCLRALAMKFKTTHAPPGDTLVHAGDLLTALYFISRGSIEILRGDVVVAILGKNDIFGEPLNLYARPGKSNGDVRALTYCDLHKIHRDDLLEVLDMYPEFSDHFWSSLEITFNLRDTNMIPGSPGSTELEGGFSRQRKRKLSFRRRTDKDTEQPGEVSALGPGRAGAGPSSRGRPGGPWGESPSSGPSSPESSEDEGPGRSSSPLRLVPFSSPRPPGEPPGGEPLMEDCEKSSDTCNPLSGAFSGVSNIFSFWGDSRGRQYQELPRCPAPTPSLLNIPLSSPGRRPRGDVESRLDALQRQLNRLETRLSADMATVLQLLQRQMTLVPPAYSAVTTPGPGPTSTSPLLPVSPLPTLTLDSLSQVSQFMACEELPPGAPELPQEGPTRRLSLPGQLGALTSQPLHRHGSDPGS

COc1ncc(C2=CCOCC2)cc1NS(=O)(=O)c1cn(Cc2ccccc2)c(C)n1
Ratio IC50 [1]: > 100
IC50 [2]: 1000 nM
Ratio IC50 [3]: > 100
IC50 [4]: 50.1 nM
Ratio IC50 [5]: > 100
Ratio IC50 [6]: > 100
fraction unbound [7]: 0.101
Ratio IC50 [8]: > 100
Ratio IC50 [9]: > 100
IC50 [10]: 631 nM
Ratio IC50 [11]: > 100
Ratio IC50 [12]: > 100
Ratio IC50 [13]: > 100
Ratio IC50 [14]: > 100
Ratio IC50 [15]: > 100
Ratio IC50 [16]: > 100
Ratio IC50 [17]: > 100
IC50 [18]: 6.31 nM
Ratio IC50 [19]: > 100
Ratio IC50 [20]: > 100
Ratio IC50 [21]: > 100
IC50 [22]: 1000 nM
clearance [23]: 7.9 mL/min/g
Ratio IC50 [24]: > 100
Ratio IC50 [25]: > 100
Ratio IC50 [26]: > 100
Ratio IC50 [27]: > 100
Ratio IC50 [28]: > 100
Ratio IC50 [29]: > 100
Ratio IC50 [30]: > 100
Ratio IC50 [31]: > 100
Ratio IC50 [32]: > 100
clearance [33]: 17.4 mL/min/g
Ratio IC50 [34]: > 100
Ratio IC50 [35]: > 100
IC50 [36]: > 50100 nM
Ratio IC50 [37]: > 100
Ratio IC50 [38]: > 100
Ratio IC50 [39]: > 100
solubility kinetic at 1 h [40]: 12 µg/mL (≈ 27.2 µM)
Ratio IC50 [41]: > 100
Ratio IC50 [42]: > 100
